Results taken from patent US20250345426A1, “METHODS FOR MAKING AND USING THERAPEUTIC CELLS” (THE REGENTS OF THE UNIVERSITY OF CALIFORNIA, priority 2022, published 2025).

Legend:
Raji target cells [1] = assay: 24-hr lysis assay of inhibitor-treated Leu16 CAR-T cells against Raji; format: cell-based; conditions: three E:T ratios, vs vehicle-treated
Source text: FIG. 4A-C. Characterization of pharmacologically treated Leu16 CAR-T cells in vitro. (A) TNF-α production CAR+ T cells in the absence of antigen stimulation as quantified by intracellular flow cytometry. Data bars indicate the means of technical triplicates ±1 S.D. ns not statistically significant. (B) Leu16 CAR-T cell fold expansion after 6 days of inhibitor culture was tracked. The bars in FIGS. 4A and 4B, represent data from, EGFRt, Leu16-28z (vehicle), Leu16-28z (MYCi975), Leu16-28z (Betulin), and Leu16-28z (Rapamycin), respectively, from left to right. (C) A 24-hr lysis assay of CAR-T cells against Raji target cells at three effector-to-target (E:T) ratios. Data bars indicate the means of technical triplicates±1 S.D. Percent lysis was normalized to cell counts in target-only wells.
Cytotoxicity assay with Raji cells. Raji cells were seeded at 2×10^5 cells/well in 96-well U-bottom plate and coincubated with CAR^+ T cells at 1:1, 3.33:1, and 10:1 E:T ratios. Untransduced T cells were added to wells as needed to normalize for differing transduction efficiencies and ensure the total number of T cells per well was consistent throughout. Remaining target cells were quantified by MACSQuant VYB flow cytometer 24-hr post co-incubation.

rituximab CAR-T cells = assay: T-cell subtype distribution (CD45RO/CD62L staining), rituximab CAR-T cells; format: cell-based, human; conditions: 5 days of pharmacological modulation, vs vehicle
Source text: FIG. 1A-G. Pharmacological inhibition of PI3K/AKT pathway modulates antigen-independent CAR-T cell activation. (A) Table of pharmacological inhibitors used during ex vivo expansion of rituximab CAR-T cells (left). Simplified schematic of the PI3K/AKT signaling axis where black arrows represent activation (right). (B) Activation marker expression by CAR^+ T cells in the absence of antigen stimulation after 5 days of pharmacological modulation. Data bars indicate the means of technical triplicates±1 S.D. The bars in FIG. 1B represent data from, untreated, vehicle, CAL-101, AZD5363, Rapamycin, MYCi975, and Betulin, respectively, from left to right. (C) TNF-α production CAR^+ T cells in the absence of antigen stimulation as quantified by intracellular flow cytometry. Data bars indicate the means of technical triplicates±1 S.D. The bars in FIG. 1B and FIG. 1C represent data from, untreated, vehicle, CAL-101, AZD5363, Rapamycin, MYCi975, and Betulin, respectively, from left to right. (D) Proliferation of CAR^+ T cells stained with CellTrace Violet (CTV) dye was assayed after a 4-day culture in the absence of target cells or exogenous cytokines. […] Statistical significance in panels B, C, and D was determined by two-tailed Student's t test with Sidak correction for multiple comparisons. * p<0.05, ** p<0.01, *** p<0.001, n.s. not statistically significant. […]
Antibody staining for flow-cytometry analysis. EGFRt expression was measured with biotinylated cetuximab (Eli Lilly; biotinylated in-house), followed by PE-conjugated streptavidin (Jackson ImmunoResearch #016-110-084). CAR expression was quantified by surface epitope staining using anti-Fc (Alexa Fluor 488, Jackson ImmunoResearch #709-546-098). Antigen-independent activation-marker expression of CAR-T cells was evaluated by antibody staining for CD137 (PE/Cy7, clone 4B4-1, BioLegend #309818), and PD-1 (FITC, clone EH12.2H7, BioLegend #329904) on Days 18 (i.e., 18 days after Dynabead addition and 11 days after Dynabead removal) and after 5-6 days of inhibitor culture (FIG. 1, FIG. 3). […]

Raji tumor xenografts = assay: Raji xenograft in NSG mice treated with inhibitor-preconditioned rituximab CAR-T cells; format: in vivo; conditions: NSG mice, Raji i.v., preconditioned rituximab CAR-T cells, bioluminescence, vs vehicle control
Description: FIG. 2A-C. […] (A) Tumor signal (in photons/sec/cm^2/sr) in individual animals as quantified by bioluminescence imaging. […] Statistical significance was determined by Mann-Whitney U test with Holm-Sidak correction for multiple comparisons. * p<0.05, n.s. not statistically significant. (B) Kaplan-Meier survival curve (top) and table of median survival period in days (bottom). (C) Frequency of human CD45+EGFRt+ cell in peripheral blood collected from mice on day 8 after first dose of T-cell infusion. Statistical significance was determined by two-tailed Student's t test with Sidak correction for multiple comparisons. * p<0.05, ** p<0.01.
In vivo studies. Six- to eight-week-old NOD/SCID/IL-2Rγ^null (NSG) mice were obtained from UCLA Department of Radiation and Oncology. The protocol was approved by UCLA Institutional Animal Care and Used Committee. […] Details of the dose and timing of tumor injection, T-cell injection, and tumor re-challenge are indicated in the text and figures. Tumor progression/regression was monitored with an IVIS Illumina III LT Imaging System (PerkinElmer). Blood samples were harvested via retro-orbital bleeding 3 days post T-cell injection and every 10-13 days thereafter. Mice were euthanized at the humane endpoint. Bone marrow, spleen and liver were collected after euthanasia. Tissues were ground and passed through a 100-μm filter followed by red-blood-cell lysis prior to flow-cytometry analysis.

Raji target cells [2] = assay: 24-hr lysis assay of inhibitor-treated rituximab CD20 CAR-T cells against Raji; format: cell-based; conditions: three E:T ratios, vs vehicle-treated
Source text: FIG. 1A-G. Pharmacological inhibition of PI3K/AKT pathway modulates antigen-independent CAR-T cell activation. (A) Table of pharmacological inhibitors used during ex vivo expansion of rituximab CAR-T cells (left). Simplified schematic of the PI3K/AKT signaling axis where black arrows represent activation (right). (B) Activation marker expression by CAR^+ T cells in the absence of antigen stimulation after 5 days of pharmacological modulation. Data bars indicate the means of technical triplicates±1 S.D. The bars in FIG. 1B represent data from, untreated, vehicle, CAL-101, AZD5363, Rapamycin, MYCi975, and Betulin, respectively, from left to right. (C) TNF-α production CAR^+ T cells in the absence of antigen stimulation as quantified by intracellular flow cytometry. Data bars indicate the means of technical triplicates±1 S.D. The bars in FIG. 1B and FIG. 1C represent data from, untreated, vehicle, CAL-101, AZD5363, Rapamycin, MYCi975, and Betulin, respectively, from left to right. (D) Proliferation of CAR^+ T cells stained with CellTrace Violet (CTV) dye was assayed after a 4-day culture in the absence of target cells or exogenous cytokines. Data shown in the histogram correspond to one of technical triplicates shown in the bar graph. The bars FIG. 1D represent data from, EGFRt, untreated, vehicle, CAL-101, AZD5363, Rapamycin, MYCi975, and Betulin, respectively, from left to right. (E) % distribution of T-cell subtypes in CAR^+ T cells after 5 days of pharmacological modulation. Data bars indicate the means of technical triplicates±1 S.D. (F) Rituximab CAR-T cell fold expansion after 6 days of inhibitor culture was tracked. […] Statistical significance in panels B, C, and D was determined by two-tailed Student's t test with Sidak correction for multiple comparisons. * p<0.05, ** p<0.01, *** p<0.001, n.s. not statistically significant.
Cytotoxicity assay with Raji cells. […] Remaining target cells were quantified by MACSQuant VYB flow cytometer 24-hr post co-incubation.

| Compound | lysis of Raji tumor cells (Raji target cells [1]) | fraction of naïve and stem-cell memory T (Tn/scm) cells / T-cell differentiation (rituximab CAR-T cells) | tumor outgrowth / tumor progression (Raji tumor xenografts) | lysis of Raji tumor cells (Raji target cells [2]) |
| --- | --- | --- | --- | --- |
| C=C(C)[C@@H]1CC[C@]2(CO)CC[C@]3(C)[C@H](CC[C@@H]4[C@@]5(C)CC[C@H](O)C(C)(C)[C@@H]5CC[C@]43C)[C@@H]12 [betulin, Betulin] | clustered together | accelerated T-cell differentiation | accelerated tumor progression | clustered together |
| MYCi975 | clustered together | accelerated T-cell differentiation | accelerated tumor progression | clustered together |
